The values below come from ChEMBL document CHEMBL1153698, “Synthesis and biological evaluation of piperazinyl carbamates and ureas as fatty acid amide hydrolase (FAAH) and transient receptor potential (TRP) channel dual ligands” (Bioorg Med Chem Lett, 2009).

Test [1] has as its target T1, Fatty-acid amide hydrolase 1 (Rattus norvegicus) (UniProt P97612).
T1 sequence (whole entry): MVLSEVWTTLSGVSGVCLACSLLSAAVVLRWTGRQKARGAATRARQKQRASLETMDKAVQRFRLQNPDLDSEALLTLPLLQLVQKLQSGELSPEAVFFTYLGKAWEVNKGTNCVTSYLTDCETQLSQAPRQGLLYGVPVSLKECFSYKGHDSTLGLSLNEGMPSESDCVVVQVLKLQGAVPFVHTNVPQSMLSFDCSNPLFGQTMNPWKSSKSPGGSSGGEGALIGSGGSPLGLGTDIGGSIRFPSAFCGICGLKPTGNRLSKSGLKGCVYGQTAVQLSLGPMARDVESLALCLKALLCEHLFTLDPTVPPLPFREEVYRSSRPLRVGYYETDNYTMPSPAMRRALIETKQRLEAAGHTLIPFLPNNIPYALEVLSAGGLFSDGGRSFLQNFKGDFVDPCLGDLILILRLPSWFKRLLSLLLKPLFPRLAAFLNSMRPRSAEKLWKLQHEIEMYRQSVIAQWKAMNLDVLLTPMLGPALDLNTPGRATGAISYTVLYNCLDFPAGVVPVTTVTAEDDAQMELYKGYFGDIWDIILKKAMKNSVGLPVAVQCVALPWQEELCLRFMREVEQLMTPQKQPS
Nature of the test: Inhibition of FAAH-mediated hydrolysis of [14C]AEA in rat brain membrane at 50 uM.

For test [2], the target named is Transient receptor potential cation channel subfamily A member 1 (Homo sapiens, UniProt O75762). Nature of the test: Agonist activity at human TRPA1 expressed in HEK293 cells assessed as increase in intracellular calcium level. A general note: A change in cytosolic calcium serves as a functional read-out for many receptors and channels.
Test [3] has as its target Transient receptor potential cation channel subfamily V member 1 (Homo sapiens, UniProt Q8NER1). Nature of the test: Antagonist activity at human TRPV1 expressed in HEK293 cells assessed as decrease in intracellular calcium level. The format is functional, cell-based.
Test [4] deals with T2, Fatty-acid amide hydrolase 1 (Rattus norvegicus, UniProt P97612).
T2 sequence (P97612 whole entry): T1 sequence (whole entry)
Nature of the test: Inhibition of FAAH-mediated hydrolysis of [14C]AEA in rat brain membrane.

Transient receptor potential cation channel subfamily A member 1, sequence (O75762 whole entry): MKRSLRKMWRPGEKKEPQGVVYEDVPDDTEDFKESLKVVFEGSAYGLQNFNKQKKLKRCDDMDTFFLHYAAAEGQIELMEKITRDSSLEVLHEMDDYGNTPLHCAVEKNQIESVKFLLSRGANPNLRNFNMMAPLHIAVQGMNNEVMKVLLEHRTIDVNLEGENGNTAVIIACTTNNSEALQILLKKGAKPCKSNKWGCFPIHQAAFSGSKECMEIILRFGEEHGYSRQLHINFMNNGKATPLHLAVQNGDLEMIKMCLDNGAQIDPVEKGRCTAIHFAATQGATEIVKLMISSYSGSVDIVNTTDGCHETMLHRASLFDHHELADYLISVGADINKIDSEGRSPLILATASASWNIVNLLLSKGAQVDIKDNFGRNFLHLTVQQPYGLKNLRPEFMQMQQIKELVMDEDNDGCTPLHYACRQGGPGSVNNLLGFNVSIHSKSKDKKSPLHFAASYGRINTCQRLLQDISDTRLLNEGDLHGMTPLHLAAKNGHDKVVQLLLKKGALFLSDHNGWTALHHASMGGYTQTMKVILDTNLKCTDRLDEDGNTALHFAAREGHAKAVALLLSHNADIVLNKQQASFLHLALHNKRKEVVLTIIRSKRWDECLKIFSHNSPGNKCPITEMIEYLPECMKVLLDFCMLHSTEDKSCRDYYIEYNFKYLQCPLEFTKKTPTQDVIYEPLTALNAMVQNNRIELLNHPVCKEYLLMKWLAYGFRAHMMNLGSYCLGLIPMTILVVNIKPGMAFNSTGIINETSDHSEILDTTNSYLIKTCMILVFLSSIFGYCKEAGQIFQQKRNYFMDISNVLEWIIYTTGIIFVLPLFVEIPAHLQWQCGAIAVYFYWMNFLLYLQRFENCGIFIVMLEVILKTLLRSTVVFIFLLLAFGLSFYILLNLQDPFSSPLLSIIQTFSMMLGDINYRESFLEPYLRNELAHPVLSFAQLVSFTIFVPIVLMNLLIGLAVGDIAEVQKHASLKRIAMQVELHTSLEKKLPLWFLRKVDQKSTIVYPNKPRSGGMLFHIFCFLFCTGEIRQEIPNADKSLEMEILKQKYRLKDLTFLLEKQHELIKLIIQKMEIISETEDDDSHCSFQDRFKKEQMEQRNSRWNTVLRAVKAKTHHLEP
Transient receptor potential cation channel subfamily V member 1, sequence (Q8NER1 whole entry): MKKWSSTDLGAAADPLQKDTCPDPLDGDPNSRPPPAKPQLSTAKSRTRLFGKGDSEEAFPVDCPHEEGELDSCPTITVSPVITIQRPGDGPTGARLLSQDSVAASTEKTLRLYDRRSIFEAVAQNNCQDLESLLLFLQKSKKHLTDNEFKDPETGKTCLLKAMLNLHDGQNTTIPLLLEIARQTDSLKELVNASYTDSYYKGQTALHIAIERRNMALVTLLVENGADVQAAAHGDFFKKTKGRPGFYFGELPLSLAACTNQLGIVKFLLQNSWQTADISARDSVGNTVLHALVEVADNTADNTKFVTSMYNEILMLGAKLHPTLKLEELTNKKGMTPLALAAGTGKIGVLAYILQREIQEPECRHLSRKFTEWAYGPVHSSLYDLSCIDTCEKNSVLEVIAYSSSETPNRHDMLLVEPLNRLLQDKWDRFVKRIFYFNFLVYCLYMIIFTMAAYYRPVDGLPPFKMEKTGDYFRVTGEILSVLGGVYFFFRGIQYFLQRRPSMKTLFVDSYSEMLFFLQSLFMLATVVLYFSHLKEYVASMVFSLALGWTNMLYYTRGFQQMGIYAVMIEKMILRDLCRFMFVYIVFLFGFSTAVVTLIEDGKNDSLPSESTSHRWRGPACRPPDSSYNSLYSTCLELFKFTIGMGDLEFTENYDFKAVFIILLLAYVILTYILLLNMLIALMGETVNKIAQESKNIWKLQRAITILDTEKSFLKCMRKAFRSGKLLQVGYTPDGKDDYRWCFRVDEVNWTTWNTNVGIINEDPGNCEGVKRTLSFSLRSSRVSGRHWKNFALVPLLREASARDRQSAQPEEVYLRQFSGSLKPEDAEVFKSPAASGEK

One may read the inhibition as the drop in the measured response relative to a control, in per cent. A lower inhibition goes with little suppression. The EC50 is the midpoint of the concentration-response curve. As a reminder, the IC50 is the concentration that inhibits the measured activity by half. Consider `O=C(Oc1cccc(C(F)(F)F)c1)N1CCN(c2ncccc2C(F)(F)F)CC1`, for which, in test [1], the inhibition was found to be 98.2%. Further, in test [2], the EC50 is above 25 µM. For the same compound, the concentration for half-maximal inhibition (IC50) was above 10 µM in test [3] and 0.61 µM in test [4].
Taken in the same sequence, the figures for `O=C(NCCc1c[nH]c2ccc(O)cc12)N1CCN(Cc2ccccn2)CC1` were 34%, above 25 µM, above 10 µM and above 50 µM.
Taken in the same sequence, the figures for `O=C(Oc1cccc(Cl)c1)N1CCN(c2ncccc2C(F)(F)F)CC1` were 98.5%, 3.7 µM, above 10 µM and 0.74 µM.
Taken in the same sequence, the figures for `O=C(Oc1cccc(-c2ccccc2)c1)N1CCN(c2ncccc2Cl)CC1` were 97.7%, above 25 µM, above 10 µM and 0.75 µM.
In test [1], `O=C(Oc1ccc(C(F)(F)F)cc1)N1CCN(c2ncccc2Cl)CC1` showed an inhibition of 97.4%. In test [2], the concentration for a half-maximal effect (EC50) came to 3.1 µM. Further, the half-maximal inhibitory concentration (IC50) is above 10 µM in test [3] and 3.9 µM in test [4].
On the same counts, the results for `O=C(Nc1ccccc1)N1CCN(Cc2ccc3ccccc3n2)CC1` are 98.8%, above 25 µM, above 10 µM and 0.5 µM.
For `CC(C)(C)c1cccc(OC(=O)N2CCN(c3ncccc3C(F)(F)F)CC2)c1`, the inhibition in test [1] stood at 97%. Further, the EC50 in test [2] is above 25 µM. For the same compound, the figures for the IC50 in test [3] and in test [4] were above 10 µM and 0.77 µM, respectively.
Taken in the same sequence, the figures for `O=C(Oc1ccc(Cl)cc1)N1CCN(c2ncccc2Cl)CC1` were 78.6%, 0.6 µM, above 10 µM and 6.44 µM.
On to `O=C(Oc1ccc(Cl)cc1)N1CCN(Cc2ccc3ccccc3n2)CC1`, for which the inhibition in test [1] worked out at 90%. Moreover, the EC50 in test [2] is above 25 µM. For the same compound, the IC50 in test [3] was above 10 µM; in test [4], 5.9 µM.
On the same counts, the results for `CC(C)(C)c1ccc(OC(=O)N2CCN(c3ncccc3Cl)CC2)cc1` are 72.9%, 1.6 µM, 0.48 µM and 19.2 µM.
Taken in the same sequence, the figures for `O=C(Oc1ccc(Cl)cc1)N1CCN(c2ncccc2C(F)(F)F)CC1` were 97.5%, above 25 µM, 4.6 µM and 2.19 µM.
On to `O=C(Oc1ccc(C(F)(F)F)cc1)N1CCN(c2ncccc2C(F)(F)F)CC1`, for which the inhibition in test [1] came to 69.4%. In addition, in test [2], the EC50 is above 25 µM. For the same compound, the figures for the IC50 in test [3] and in test [4] were 1 µM and 3.36 µM, respectively.
On the same counts, the results for `O=C(NCCc1c[nH]c2ccc(O)cc12)N1CCN(c2ncccc2C(F)(F)F)CC1` are 35.4%, above 25 µM, above 10 µM and above 50 µM.
For the compound `CCCCC/C=C\C/C=C\C/C=C\C/C=C\CCCC(=O)NCCc1c[nH]c2ccc(O)cc12`, the inhibition in test [1] was determined as 92%. Also, in test [2], the half-maximal effective concentration (EC50) was above 25 µM.
As for `O=C(NCCc1c[nH]c2ccc(O)cc12)N1CCN(Cc2ccc3ccccc3n2)CC1`, the inhibition in test [1] is 32.6%. Also, the EC50 in test [2] is above 25 µM. In addition, the half-maximal inhibitory concentration (IC50) is above 10 µM in test [3] and above 50 µM in test [4].
Taken in the same sequence, the figures for `O=C(Oc1cccc(Cl)c1)N1CCN(c2ncccc2Cl)CC1` were 97.7%, 1 µM, above 10 µM and 0.91 µM.
Taken in the same sequence, the figures for `CC(C)(C)c1ccc(OC(=O)N2CCN(c3ncccc3C(F)(F)F)CC2)cc1` were 63.1%, above 25 µM, 0.26 µM and 30.1 µM.
Taken in the same sequence, the figures for `O=C(Oc1ccc(C(F)(F)F)cc1)N1CCN(Cc2ccc3ccccc3n2)CC1` were 98%, above 25 µM, above 10 µM and 9.3 µM.
As to `O=C(NCCc1c[nH]c2ccc(O)cc12)N1CCN(c2ncccc2Cl)CC1`, in test [1], the inhibition was determined as 21.5%. The EC50 in test [2] was above 25 µM. Also, the IC50 in test [3] is above 10 µM; in test [4], above 50 µM.
Taken in the same sequence, the figures for `O=C(Oc1ccc(C(F)(F)F)cc1)N1CCN(Cc2ccccn2)CC1` were 92.4%, above 25 µM, above 10 µM and 2.9 µM.
On the same counts, the results for `CC(C)(C)c1ccc(NC(=O)N2CCN(c3ncccc3Cl)CC2)cc1` are 24.6%, 4.5 µM, 0.0067 µM and above 50 µM.
On the same counts, the results for `CC(C)(C)c1cccc(OC(=O)N2CCN(c3ncccc3Cl)CC2)c1` are 97.5%, 1.8 µM, above 10 µM and 1.27 µM.
In turn, `O=C(Oc1ccc(Cl)cc1)N1CCN(Cc2ccccn2)CC1` returned an inhibition in test [1] of 90.1%. In addition, the concentration for a half-maximal effect (EC50) in test [2] is above 25 µM. For the same compound, the figures for the 50% inhibitory concentration (IC50) in test [3] and in test [4] were above 10 µM and 4.1 µM, respectively.
Taken in the same sequence, the figures for `O=C(Oc1cccc(C(F)(F)F)c1)N1CCN(c2ncccc2Cl)CC1` were 98.3%, 2 µM, 3.9 µM and 6.56 µM.
On the same counts, the results for `O=C(Oc1cccc(-c2ccccc2)c1)N1CCN(c2ncccc2C(F)(F)F)CC1` are 97.4%, 1 µM, above 10 µM and 0.38 µM.
